pEC50: −log10 of the molar value.
Assays:
[1] = Induction of adipocyte differentiation in mouse 3T3-L1 cells at 10 uM
[2] = target: T1, Peroxisome proliferator-activated receptor gamma (Homo sapiens, UniProt P37231)
T1 sequence (P37231 whole entry): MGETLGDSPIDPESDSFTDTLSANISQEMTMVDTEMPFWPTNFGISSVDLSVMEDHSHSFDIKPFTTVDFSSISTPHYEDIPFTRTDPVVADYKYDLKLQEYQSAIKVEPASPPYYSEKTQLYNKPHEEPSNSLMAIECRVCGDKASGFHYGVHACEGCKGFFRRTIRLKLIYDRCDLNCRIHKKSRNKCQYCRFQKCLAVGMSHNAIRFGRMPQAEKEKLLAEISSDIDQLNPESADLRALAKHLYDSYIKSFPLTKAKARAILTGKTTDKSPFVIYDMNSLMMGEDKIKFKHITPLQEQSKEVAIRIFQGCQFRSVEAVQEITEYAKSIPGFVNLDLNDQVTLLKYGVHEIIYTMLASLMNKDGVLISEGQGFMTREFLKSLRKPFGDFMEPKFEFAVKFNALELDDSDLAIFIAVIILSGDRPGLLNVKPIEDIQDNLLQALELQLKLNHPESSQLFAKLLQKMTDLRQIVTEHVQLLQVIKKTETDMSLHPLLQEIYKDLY
Description: Activation of Gal4-tagged human PPARgamma expressed in CHO cells by luciferase reporter gene assay

SMILES | Activity [1] | pEC50 [2]
CCCc1nc2cc(C(O)c3ccccc3)ccc2n1Cc1ccc(-c2ccccc2C(=O)O)cc1 (stereo not given) | 100% | 5.54
CCCc1nc2ccccc2n1Cc1ccc(-c2ccccc2C(=O)O)cc1 | 67% | 5.72
CCCc1nc2cc(Br)c(Br)cc2n1Cc1ccc(-c2ccccc2C(=O)O)cc1 | 74% | 6.40
CCCc1nc2cc(C(=O)c3ccccc3)ccc2n1Cc1ccc(-c2ccccc2C(=O)O)cc1 | 104% | 6.24
CCCc1nc2cc3ccccc3cc2n1Cc1ccc(-c2ccccc2C(=O)O)cc1 | 105% | 6.59
CCCc1nc2ccc(C(O)c3ccccc3)cc2n1Cc1ccc(-c2ccccc2C(=O)O)cc1 (stereo not given) | 88% | 5.46
CCCc1nc2c(C)cc(-c3nc4ccccc4n3C)cc2n1Cc1ccc(-c2ccccc2C(=O)O)cc1 | 70% | 5.47
CCCc1nc2ccc(C(=O)c3ccccc3)cc2n1Cc1ccc(-c2ccccc2C(=O)O)cc1 | 97% | 6.21
CCc1ccc(CCOc2ccc(CC3SC(=O)NC3=O)cc2)nc1 (stereo not given) [PIOGLITAZONE] | 100% | –
CCCc1nc2ccc(Br)cc2n1Cc1ccc(-c2ccccc2C(=O)O)cc1 | 102% | 6.33
CCCc1nc2cc(Br)ccc2n1Cc1ccc(-c2ccccc2C(=O)O)cc1 | 103% | –
